According to patent US20230071637A1, “ORAL SUSPENSION WITH ANTIULCEROUS AND CHEMOPROTECTIVE EFFECT ON COLON CANCER AND PREPARATION METHOD THEREOF” (CENTRO NACIONAL DE INVESTIGACIONES CIENTIFICAS, priority 2020, published 2023):
Marks after values point to notes of the source that are not given here.

Legend:
[1] = test system: ethanol-induced gastric ulcer; assay: Ethanol-induced gastric ulcer in rats; format: in vivo, Sprague-Dawley rats; conditions: 20 mg/kg oral single dose
Description: The composition obtained in example 2 (FAMC) was subjected to a preclinical test with animals, in which its antiulcer effect was compared with the antiulcer effects of the registered fatty alcohol tablet (RAT), and suspensions of Fatty Alcohols (FA) and microcrystalline cellulose (MC), the latter two prepared with doses of FA and MC equal to the doses of both substances in the FAMC suspension. The experimental model used in this trial was the induction of gastric ulcers in rats by ethanol. […] After completing the quarantine, the animals were randomly distributed into 11 experimental groups (10 rats/group): a negative control that only received the vehicle and 10 groups in which the ulcer was induced with 60% ethanol, among these a control positive not treated with any antiulcer agent, 8 groups treated with the substances to be evaluated and a group treated with Omeprazole as a reference substance, as shown in Table 2. […] The use of a negative control group (not subjected to damage with ethanol), as well as a positive control group (subjected to damage and without treatment with any substance) made it possible to verify the functioning of the model and compare the anti-ulcer efficacy of the substances evaluated. […]

[2] = test system: gastric ulcer induced by pylorus ligation; assay: Gastric ulcer induced by pylorus ligation in rats; format: in vivo, Sprague-Dawley rats
Description: The composition obtained in example 2 (FAMC) was subjected to a preclinical test with animals, in which its antiulcer effect was compared with the antiulcer effects of the registered fatty alcohol tablet (RAT), and suspensions of Fatty Alcohols (FA) and microcrystalline cellulose (MC), the latter two prepared with doses of FA and MC equal to the doses of both substances in the FAMC suspension. The experimental model used in this test was that of the induction of gastric ulcers in rats by ligation of the pylorus, which is an acid-dependent model, unlike the model presented in the previous example. […] After completing the quarantine, the animals were randomly distributed into 11 experimental groups (10 rats/group): a negative control that only received the vehicle and 10 groups in which the ulcer was induced by ligation of the pylorus, among these a positive control not treated with any antiulcer agent, 8 groups treated with the substances to be evaluated and a group treated with Omeprazole as a reference substance, as shown in Table 3. The suspensions were administered as they are, while a suspension with 1% acacia gum was prepared to administer the tablet. The use of a negative control group (not subjected to pylorus ligation), as well as that of a positive control (subjected to damage and without treatment with any substance) made it possible to verify the functioning of the model and compare the anti-ulcer efficacy of the substances evaluated. All treatments were administered orally, as a single dose, by intragastric intubation. The selected doses are within the range of effective doses verified in previous preliminary experiences and the dose of omeprazole (20 mg/kg) has also been effective in this model. To induce gastric ulcer, the animals were fasted for 24 hours prior to the experiment, with free access to water. One hour after the administration of single doses of the vehicle, and the different treatments, the animals were anesthetized by intraperitoneal injection with sodium thiopental (35 mg/kg), a 2 cm-long incision was made in the anterior third of the line abdominal media, locating the stomach and ligating the pyloric sphincter with silk suture number 2 and the abdominal wall was sutured with silk thread. One hour later, the rats were sacrificed in a halothane atmosphere, the stomachs were removed and the gastric juice collected in test tubes. The latter was centrifuged at 3000 rpm, the supernatant separated and quantified in ml.

## COc1ccc2[nH]c([S+]([O-])Cc3ncc(C)c(OC)c3C)nc2c1 (stereo not drawn) [OMP, Omeprazole]
[1]; 1 h before 60% ethanol, mean ± SEM
  Ulcer Index: 35.97 ± 14.48*** mm^2
[1]; vs positive control
  I (%) inhibition of ulcer index: 78.8%
[2]; 20 mg/kg oral single dose, 1 h before pylorus ligation, mean ± SEM
  Ulcer Index: 3,9 ± 0,5 *** mm^2
[2]; 20 mg/kg oral single dose, supernatant of gastric juice 1 h after ligation, mean ± SEM
  Gastric juice volume: 3,4 ± 0,4 ml
[2]; 20 mg/kg oral single dose, vs positive control
  I (%) inhibition of ulcer index: 83,2%
[2]; pylorus ligation, doses tested, vs positive control
  volume of gastric juice (effect in words): reduced
